PubChem BioAssay (NCI)
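Step 1: Grow cells in 96-well plates. Step 2: Expose to compound for 48 hours at 5 concentrations. Step 3: Interpolate endpoints linearly; if unreached, use highest concentration. GI50 = concentration required for 50% inhibition of growth. TGI marks complete inhibition of growth.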

Experiments:
Assay in all cases: growth of human tumour cells (NCI), 48 h
U251 CNS = system: U251 CNS
HCC-2998 colon = system: HCC-2998 colon
LOX IMVI melanoma = system: LOX IMVI melanoma
SR leukemia = system: SR leukemia
SF-268 CNS = system: SF-268 CNS
MALME-3M melanoma = system: MALME-3M melanoma
BT-549 breast = system: BT-549 breast
A498 renal = system: A498 renal
DU-145 prostate = system: DU-145 prostate
MOLT-4 leukemia = system: MOLT-4 leukemia
T-47D breast = system: T-47D breast
A549 NSCLC = system: A549 NSCLC
SK-OV-3 ovarian = system: SK-OV-3 ovarian
UO-31 renal = system: UO-31 renal
MDA-MB-468 breast = system: MDA-MB-468 breast
PC-3 prostate = system: PC-3 prostate
SK-MEL-28 melanoma = system: SK-MEL-28 melanoma
SK-MEL-2 melanoma = system: SK-MEL-2 melanoma
SNB-75 CNS = system: SNB-75 CNS
OVCAR-8 ovarian = system: OVCAR-8 ovarian
HOP-92 NSCLC = system: HOP-92 NSCLC
HCT-15 colon = system: HCT-15 colon
HT29 colon = system: HT29 colon
K-562 leukemia = system: K-562 leukemia
NCI-H522 lung = system: NCI-H522 lung
NCI-H226 lung = system: NCI-H226 lung
COLO 205 colon = system: COLO 205 colon
SF-295 CNS = system: SF-295 CNS
SK-MEL-5 melanoma = system: SK-MEL-5 melanoma
UACC-257 melanoma = system: UACC-257 melanoma
NCI-H23 lung = system: NCI-H23 lung
HOP-62 NSCLC = system: HOP-62 NSCLC
OVCAR-4 ovarian = system: OVCAR-4 ovarian
HCT-116 colon = system: HCT-116 colon
M14 melanoma = system: M14 melanoma
SN12C renal = system: SN12C renal
MDA-MB-435 = system: MDA-MB-435
UACC-62 melanoma = system: UACC-62 melanoma
ACHN renal = system: ACHN renal
MCF7 breast = system: MCF7 breast
SNB-19 CNS = system: SNB-19 CNS
HL-60(TB) leukemia = system: HL-60(TB) leukemia
MDA-MB-231 breast = system: MDA-MB-231 breast
RXF 393 renal = system: RXF 393 renal
OVCAR-5 ovarian = system: OVCAR-5 ovarian
OVCAR-3 ovarian = system: OVCAR-3 ovarian
EKVX NSCLC = system: EKVX NSCLC
CCRF-CEM leukemia = system: CCRF-CEM leukemia
CAKI-1 renal = system: CAKI-1 renal
KM12 colon = system: KM12 colon
IGROV1 ovarian = system: IGROV1 ovarian
RPMI-8226 leukemia = system: RPMI-8226 leukemia
SF-539 CNS = system: SF-539 CNS
NCI/ADR-RES ovarian = system: NCI/ADR-RES ovarian
SW-620 colon = system: SW-620 colon
TK-10 renal = system: TK-10 renal
786-0 renal = system: 786-0 renal
HS 578T breast = system: HS 578T breast
NCI-H460 lung = system: NCI-H460 lung

`O=c1[nH]c2ccc(Cl)cc2cc1CSc1ccc(Nc2nccc(-c3ccc(Cl)cc3)n2)cc1` was tested, and the GI50 (U251 CNS) was 16.5 µM, the TGI (U251 CNS) was 36.1 µM and the GI50 (HCC-2998 colon) was 25.3 µM. The TGI (HCC-2998 colon) was over 100 µM, the GI50 (LOX IMVI melanoma) was 20.6 µM and the TGI (LOX IMVI melanoma) was 60.9 µM. For the same molecule, the GI50 (SR leukemia) was 69.5 µM, the TGI (SR leukemia) was over 100 µM and the GI50 (SF-268 CNS) was 15.3 µM. For the same molecule, the TGI (SF-268 CNS) was 40.1 µM, the GI50 (MALME-3M melanoma) was 19.1 µM and the TGI (MALME-3M melanoma) was 50.1 µM. It also gave a GI50 (BT-549 breast) of 15.5 µM, a TGI (BT-549 breast) of 31.8 µM and a GI50 (A498 renal) of 20 µM. The TGI (A498 renal) was 43.7 µM, the GI50 (DU-145 prostate) was 15.1 µM and the TGI (DU-145 prostate) was 61.7 µM. It also gave a GI50 (MOLT-4 leukemia) of 13.5 µM, a TGI (MOLT-4 leukemia) of over 100 µM and a GI50 (T-47D breast) of 29.6 µM. The TGI (T-47D breast) was over 100 µM, the GI50 (A549 NSCLC) was 16.9 µM and the TGI (A549 NSCLC) was 41.2 µM. It also gave a GI50 (SK-OV-3 ovarian) of 18.7 µM, a TGI (SK-OV-3 ovarian) of 39 µM and a GI50 (UO-31 renal) of 29 µM. It also gave a TGI (UO-31 renal) of over 100 µM, a GI50 (MDA-MB-468 breast) of 10.6 µM and a TGI (MDA-MB-468 breast) of 25.3 µM. For the same molecule, the GI50 (PC-3 prostate) was 9.22 µM, the TGI (PC-3 prostate) was 27.8 µM and the GI50 (SK-MEL-28 melanoma) was 22.6 µM. The TGI (SK-MEL-28 melanoma) was 72.3 µM, the GI50 (SK-MEL-2 melanoma) was 20 µM and the TGI (SK-MEL-2 melanoma) was 43 µM. It also gave a GI50 (SNB-75 CNS) of 11.4 µM, a TGI (SNB-75 CNS) of 29.7 µM and a GI50 (OVCAR-8 ovarian) of 23.4 µM. The TGI (OVCAR-8 ovarian) was 72.6 µM, the GI50 (HOP-92 NSCLC) was 15.9 µM and the TGI (HOP-92 NSCLC) was 38.3 µM. For the same molecule, the GI50 (HCT-15 colon) was 6.64 µM, the TGI (HCT-15 colon) was 24.5 µM and the GI50 (HT29 colon) was 13.8 µM. The TGI (HT29 colon) was over 100 µM, the GI50 (K-562 leukemia) was 15.8 µM and the TGI (K-562 leukemia) was over 100 µM. The GI50 (NCI-H522 lung) was 20.1 µM, the TGI (NCI-H522 lung) was 51.7 µM and the GI50 (NCI-H226 lung) was 16.5 µM. For the same molecule, the TGI (NCI-H226 lung) was 45.1 µM, the GI50 (COLO 205 colon) was 40.5 µM and the TGI (COLO 205 colon) was over 100 µM. The GI50 (SF-295 CNS) was 17.6 µM, the TGI (SF-295 CNS) was 36.9 µM and the GI50 (SK-MEL-5 melanoma) was 25.5 µM. It also gave a TGI (SK-MEL-5 melanoma) of 99.2 µM, a GI50 (UACC-257 melanoma) of over 100 µM and a TGI (UACC-257 melanoma) of over 100 µM. The GI50 (NCI-H23 lung) was 15.3 µM, the TGI (NCI-H23 lung) was 30 µM and the GI50 (HOP-62 NSCLC) was 16.5 µM. The TGI (HOP-62 NSCLC) was 31.7 µM, the GI50 (OVCAR-4 ovarian) was 16.9 µM and the TGI (OVCAR-4 ovarian) was 51 µM. It also gave a GI50 (HCT-116 colon) of 10.6 µM, a TGI (HCT-116 colon) of 26.7 µM and a GI50 (M14 melanoma) of 19.1 µM. The TGI (M14 melanoma) was 50.5 µM, the GI50 (SN12C renal) was over 100 µM and the TGI (SN12C renal) was over 100 µM. It also gave a GI50 (MDA-MB-435) of 15.3 µM, a TGI (MDA-MB-435) of 40.9 µM and a GI50 (UACC-62 melanoma) of 19.6 µM. It also gave a TGI (UACC-62 melanoma) of 45.4 µM, a GI50 (ACHN renal) of 22 µM and a TGI (ACHN renal) of 56.1 µM. For the same molecule, the GI50 (MCF7 breast) was 5.65 µM, the TGI (MCF7 breast) was 28.5 µM and the GI50 (SNB-19 CNS) was 15.8 µM. It also gave a TGI (SNB-19 CNS) of 31.5 µM, a GI50 (HL-60(TB) leukemia) of 42.9 µM and a TGI (HL-60(TB) leukemia) of over 100 µM. For the same molecule, the GI50 (MDA-MB-231 breast) was 12.4 µM, the TGI (MDA-MB-231 breast) was 28 µM and the GI50 (RXF 393 renal) was 12 µM. For the same molecule, the TGI (RXF 393 renal) was 26.4 µM, the GI50 (OVCAR-5 ovarian) was 57.8 µM and the TGI (OVCAR-5 ovarian) was over 100 µM. For the same molecule, the GI50 (OVCAR-3 ovarian) was 19.1 µM, the TGI (OVCAR-3 ovarian) was 37.1 µM and the GI50 (EKVX NSCLC) was 28.1 µM. It also gave a TGI (EKVX NSCLC) of over 100 µM, a GI50 (CCRF-CEM leukemia) of 13.4 µM and a TGI (CCRF-CEM leukemia) of over 100 µM. It also gave a GI50 (CAKI-1 renal) of 15.6 µM, a TGI (CAKI-1 renal) of 38.4 µM and a GI50 (KM12 colon) of 30.5 µM. The TGI (KM12 colon) was over 100 µM, the GI50 (IGROV1 ovarian) was 22.7 µM and the TGI (IGROV1 ovarian) was 52.5 µM. For the same molecule, the GI50 (RPMI-8226 leukemia) was 86.6 µM, the TGI (RPMI-8226 leukemia) was over 100 µM and the GI50 (SF-539 CNS) was 15.1 µM. The TGI (SF-539 CNS) was 31.1 µM, the GI50 (NCI/ADR-RES ovarian) was 14.8 µM and the TGI (NCI/ADR-RES ovarian) was 42 µM. It also gave a GI50 (SW-620 colon) of 4.42 µM, a TGI (SW-620 colon) of 20 µM and a GI50 (TK-10 renal) of 18.6 µM. For the same molecule, the TGI (TK-10 renal) was 36.2 µM, the GI50 (786-0 renal) was 17.4 µM and the TGI (786-0 renal) was 34.3 µM. It also gave a GI50 (HS 578T breast) of 17.3 µM, a TGI (HS 578T breast) of 52 µM and a GI50 (NCI-H460 lung) of 6.2 µM. It also gave a TGI (NCI-H460 lung) of 25.5 µM.
